Key:
Conditions in all cases: 11-point 3-fold dilution, qPCR readout
[1] = target: T1, FGFR2 (Homo sapiens, UniProt P21802); test: Kinase binding assay (Kd), FGFR2
T1 construct: made in house; host or cells: E. coli host derived from BL21, infected with T7 phage
Procedure: (§1) Kinase-tagged T7 phage strains were prepared in an E. coli host derived from the BL21 strain. E. coli were grown to log-phase and infected with T7 phage and incubated with shaking at 32° C. until lysis. The lysates were centrifuged and filtered to remove cell debris. Streptavidin-coated magnetic beads were treated with biotinylated small molecule ligands for 30 minutes at room temperature to generate affinity resins for kinase assays. The liganded beads were blocked with excess biotin and washed with blocking buffer SeaBlock (Pierce), 1% BSA, 0.05% Tween 20, 1 mM DTT to remove unbound ligand and to reduce non-specific binding. Binding reactions were assembled by combining kinases, liganded affinity beads, and test compounds in 1× binding buffer (20% SeaBlock, 0.17×PBS, 0.05% Tween 20, 6 mM DTT).
(§2) Test compounds were prepared as 111X stocks in 100% DMSO. Kds were determined using an 11-point 3-fold compound dilution series with three DMSO control points. All compounds for Kd measurements are distributed by acoustic transfer (non-contact dispensing) in 100% DMSO. The compounds were then diluted directly into the assays such that the final concentration of DMSO was 0.9%. All reactions performed in polypropylene 384-well plate. Each was a final volume of 0.02 ml. The assay plates were incubated at room temperature with shaking for 1 hour and the affinity beads were washed with wash buffer (lx PBS, 0.05% Tween 20). The beads were then re-suspended in elution buffer (lx PBS, 0.05% Tween 20, 0.5 μM non-biotinylated affinity ligand) and incubated at room temperature with shaking for 30 minutes. The kinase concentration in the eluates was measured by qPCR.
(§3) Binding constants were calculated with a standard dose-response curve using the Hill equation: […]
(§4) The Hill Slope was set to −1. Curves were fitted using a non-linear least square fit with the Levenberg-Marquardt algorithm.

[2] = target: T2, FGFR4 (Homo sapiens, UniProt P22455); test: Kinase binding assay (Kd), FGFR4
T2 construct: made in house; host or cells: E. coli host derived from BL21, infected with T7 phage
T2 sequence (P22455 22-802): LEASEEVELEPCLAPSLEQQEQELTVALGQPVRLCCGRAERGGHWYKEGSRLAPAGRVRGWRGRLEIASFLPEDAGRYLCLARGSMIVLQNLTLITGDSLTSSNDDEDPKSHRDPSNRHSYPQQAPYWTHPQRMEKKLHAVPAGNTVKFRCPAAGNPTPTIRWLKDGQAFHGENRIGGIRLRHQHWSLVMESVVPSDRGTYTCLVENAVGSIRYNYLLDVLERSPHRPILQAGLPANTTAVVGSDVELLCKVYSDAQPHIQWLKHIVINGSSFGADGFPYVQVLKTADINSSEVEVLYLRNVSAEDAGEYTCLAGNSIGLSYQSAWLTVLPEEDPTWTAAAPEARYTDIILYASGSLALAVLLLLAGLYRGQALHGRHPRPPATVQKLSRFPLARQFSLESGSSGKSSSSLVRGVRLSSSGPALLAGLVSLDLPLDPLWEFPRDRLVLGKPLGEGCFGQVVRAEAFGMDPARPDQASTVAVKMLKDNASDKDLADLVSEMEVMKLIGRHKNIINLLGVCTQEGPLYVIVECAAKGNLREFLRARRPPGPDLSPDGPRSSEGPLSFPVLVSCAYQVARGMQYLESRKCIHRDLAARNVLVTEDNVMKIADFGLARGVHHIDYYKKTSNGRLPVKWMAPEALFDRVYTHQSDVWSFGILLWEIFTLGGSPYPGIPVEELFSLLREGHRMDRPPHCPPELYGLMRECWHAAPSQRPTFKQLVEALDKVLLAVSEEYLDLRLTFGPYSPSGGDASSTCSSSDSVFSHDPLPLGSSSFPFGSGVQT
Procedure: as §1, §2, §3, §4

[3] = target: T3, FGFR3 (V555M) (Homo sapiens, UniProt P22607, V555M); test: Kinase binding assay (Kd), FGFR3 (V555M)
T3 construct: made in house; host or cells: E. coli host derived from BL21, infected with T7 phage
T3 sequence (P22607 23-806 V555M): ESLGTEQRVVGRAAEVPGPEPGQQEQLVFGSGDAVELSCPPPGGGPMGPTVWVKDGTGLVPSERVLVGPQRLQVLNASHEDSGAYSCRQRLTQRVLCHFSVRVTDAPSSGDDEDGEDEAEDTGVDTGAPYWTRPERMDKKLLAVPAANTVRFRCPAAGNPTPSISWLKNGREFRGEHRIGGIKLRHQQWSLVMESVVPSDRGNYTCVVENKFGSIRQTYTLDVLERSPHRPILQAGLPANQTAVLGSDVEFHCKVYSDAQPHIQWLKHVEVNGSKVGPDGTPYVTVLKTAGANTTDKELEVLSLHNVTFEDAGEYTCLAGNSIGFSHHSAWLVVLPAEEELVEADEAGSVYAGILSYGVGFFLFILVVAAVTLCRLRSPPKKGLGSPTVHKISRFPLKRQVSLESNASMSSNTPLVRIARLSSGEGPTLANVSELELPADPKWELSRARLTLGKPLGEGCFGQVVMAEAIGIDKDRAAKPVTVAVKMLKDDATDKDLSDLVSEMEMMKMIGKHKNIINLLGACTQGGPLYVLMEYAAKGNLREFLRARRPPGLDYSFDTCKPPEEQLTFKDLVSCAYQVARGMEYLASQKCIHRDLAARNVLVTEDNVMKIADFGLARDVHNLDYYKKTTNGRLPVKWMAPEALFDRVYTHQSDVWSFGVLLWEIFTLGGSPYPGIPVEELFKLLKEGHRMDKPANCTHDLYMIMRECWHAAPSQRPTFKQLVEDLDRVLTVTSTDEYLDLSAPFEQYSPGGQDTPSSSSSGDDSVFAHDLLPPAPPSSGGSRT
Procedure: as §1, §2, §3, §4

[4] = target: T4, FGFR3 (Homo sapiens, UniProt P22607); test: Kinase binding assay (Kd), FGFR3
T4 construct: made in house; host or cells: E. coli host derived from BL21, infected with T7 phage
T4 sequence (P22607 23-806): as the sequence (P22607 23-806 V555M) above, with M533V counted along it
Procedure: as §1, §2, §3, §4

[5] = target: T5, FGFR1 (Homo sapiens, UniProt P11362); test: Kinase binding assay (Kd), FGFR1
T5 construct: made in house; host or cells: E. coli host derived from BL21, infected with T7 phage
T5 sequence (P11362 22-822): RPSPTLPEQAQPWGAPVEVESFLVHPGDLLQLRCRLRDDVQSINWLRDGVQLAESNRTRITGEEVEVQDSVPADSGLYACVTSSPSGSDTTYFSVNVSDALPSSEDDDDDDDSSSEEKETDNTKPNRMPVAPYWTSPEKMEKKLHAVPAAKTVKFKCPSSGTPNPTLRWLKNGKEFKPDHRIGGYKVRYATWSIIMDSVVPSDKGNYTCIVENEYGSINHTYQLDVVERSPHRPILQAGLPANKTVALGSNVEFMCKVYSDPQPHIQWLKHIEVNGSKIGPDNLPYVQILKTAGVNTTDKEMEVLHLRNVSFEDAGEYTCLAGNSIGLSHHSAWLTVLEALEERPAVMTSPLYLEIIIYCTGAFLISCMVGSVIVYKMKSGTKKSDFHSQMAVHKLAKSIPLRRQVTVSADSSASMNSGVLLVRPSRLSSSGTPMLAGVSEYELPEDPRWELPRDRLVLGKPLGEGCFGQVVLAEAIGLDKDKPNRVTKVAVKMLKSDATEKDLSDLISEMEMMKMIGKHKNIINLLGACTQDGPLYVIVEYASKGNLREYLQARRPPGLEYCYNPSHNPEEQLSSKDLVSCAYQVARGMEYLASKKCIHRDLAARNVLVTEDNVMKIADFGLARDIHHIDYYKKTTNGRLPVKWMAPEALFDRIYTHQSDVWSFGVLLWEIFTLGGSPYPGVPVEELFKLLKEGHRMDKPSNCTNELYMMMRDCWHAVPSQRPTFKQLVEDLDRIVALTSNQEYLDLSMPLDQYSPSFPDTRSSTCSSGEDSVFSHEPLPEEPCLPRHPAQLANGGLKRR
Procedure: as §1, §2, §3, §4

T1 sequence (P21802 22-821): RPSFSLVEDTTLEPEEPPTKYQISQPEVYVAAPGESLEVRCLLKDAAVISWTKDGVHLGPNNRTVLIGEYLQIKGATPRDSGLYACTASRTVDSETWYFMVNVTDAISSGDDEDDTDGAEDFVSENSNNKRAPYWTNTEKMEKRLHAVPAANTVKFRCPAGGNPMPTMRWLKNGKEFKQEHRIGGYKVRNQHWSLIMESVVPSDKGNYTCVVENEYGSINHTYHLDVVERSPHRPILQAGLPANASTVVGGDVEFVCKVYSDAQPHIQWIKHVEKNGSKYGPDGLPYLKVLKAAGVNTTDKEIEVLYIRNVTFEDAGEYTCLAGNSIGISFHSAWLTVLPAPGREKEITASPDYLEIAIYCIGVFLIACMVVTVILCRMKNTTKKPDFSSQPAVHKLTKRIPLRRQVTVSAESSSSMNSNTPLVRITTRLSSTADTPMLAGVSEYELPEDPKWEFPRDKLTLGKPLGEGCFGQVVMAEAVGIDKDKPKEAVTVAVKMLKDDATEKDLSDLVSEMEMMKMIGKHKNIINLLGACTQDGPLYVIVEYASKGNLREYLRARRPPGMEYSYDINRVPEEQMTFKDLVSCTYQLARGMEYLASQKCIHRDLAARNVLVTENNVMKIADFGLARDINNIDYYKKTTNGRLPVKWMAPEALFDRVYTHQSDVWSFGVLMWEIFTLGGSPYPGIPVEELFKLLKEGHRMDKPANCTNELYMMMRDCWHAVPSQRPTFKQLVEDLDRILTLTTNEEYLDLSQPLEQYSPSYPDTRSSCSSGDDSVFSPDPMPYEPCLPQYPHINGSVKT

Compound	Kd [1]	Kd [2]	Kd [3]	Kd [4]	Kd [5]
COc1cc(N2CCS(=N)(=O)CC2)ccc1Nc1nccc(-n2ccc3ccccc32)n1 [Example 45, N-[4-(1-Imino-1-oxo-1,4-thiazinan-4-yl)-2-methoxy-phenyl]-4-indol-1-yl-pyrimidin-2-amine]	9000 nM	5100 nM	1100 nM	4900 nM	7800 nM
COc1cc(N2CCS(=N)(=O)CC2)ccc1Nc1ncc(C)c(-n2ccc3ccccc32)n1 [Example 46, N-[4-(1-imino-1-oxo-1,4-thiazinan-4-yl)-2-methoxy-phenyl]-4-indol-1-yl-5-methyl-pyrimidin-2-amine]	4400 nM	5600 nM	160 nM	2200 nM	2700 nM
C=CC(=O)Nc1ccc2c(c1)c(C)cn2-c1nc(Nc2ccc(N=S(C)(C)=O)cc2OCC)ncc1Cl [Example 65, N-[1-[5-Chloro-2-[4-[[dimethyl(oxo)-λ^6-sulfanylidene]amino]-2-ethoxy-anilino]pyrimidin-4-yl]-3-methyl-indol-5-yl]prop-2-enamide]	7900 nM	1300 nM	970 nM	1700 nM	4000 nM
CCC(=O)Nc1ccc2c(ccn2-c2nc(Nc3ccc(N=S(C)(C)=O)cc3)ncc2Cl)c1 [Example 68, N-[1-[5-Chloro-2-[4-[[dimethyl(oxo)-λ^6-sulfanylidene]amino]anilino]-pyrimidin-4-yl]indol-5-yl]propanamide]	340 nM	2400 nM	24 nM	320 nM	630 nM
C=CC(=O)Nc1ccc2c(ccn2-c2nc(Nc3ccc(S(C)(=N)=O)cc3OC)ncc2Cl)c1 (stereo not shown) [Example 71, N-[1-[5-chloro-2-[2-methoxy-4-(methylsulfonimidoyl)-anilino]pyrimidin-4-yl]indol-5-yl]prop-2-enamide]	3000 nM	3400 nM	140 nM	1500 nM	6000 nM
CCC(=O)Nc1ccc2c(ccn2-c2nc(Nc3ccc(N4CCS(=N)(=O)CC4)cc3)ncc2Cl)c1 [Example 73, N-[1-[5-chloro-2-[4-(1-imino-1-oxo-1,4-thiazinan-4-yl)anilino]pyrimidin-4-yl]indol-5-yl]propanamide]	380 nM	1300 nM	18 nM	180 nM	290 nM
C=CC(=O)Nc1ccc2c(ccn2-c2nc(Nc3ccc(S(C)(=N)=O)cc3OC)ncc2C)c1 (stereo not shown) [Example 75, N-[1-[2-[2-methoxy-4-(methylsulfonimidoyl)anilino]-5-methyl-pyrimidin-4-yl]indol-5-yl]prop-2-enamide]	1600 nM	500 nM	380 nM	1100 nM	5000 nM
C=CC(=O)Nc1cccc2c1ccn2-c1nc(Nc2ccc(N=S(C)(C)=O)cc2)ncc1Cl [Example 76, N-[1-[5-Chloro-2-[4-[[dimethyl(oxo)-λ^6-sulfanylidene]amino]anilino]-pyrimidin-4-yl]indol-4-yl]prop-2-enamide]	370 nM	3000 nM	12 nM	160 nM	160 nM
CS(C)(=O)=Nc1ccc(Nc2ncc(Cl)c(-n3ccc4cc(NC(=O)C5CC5)ccc43)n2)cc1 [Example 80, N-[1-[5-Chloro-2-[4-[[dimethyl(oxo)-λ^6-sulfanylidene]amino]anilino]-pyrimidin-4-yl]indol-5-yl]cyclopropanecarboxamide]	680 nM	5300 nM	23 nM	340 nM	740 nM
C=CC(=O)Nc1ccc2c(ccn2-c2nc(Nc3ccc(N=S(C)(C)=O)c(F)c3)ncc2Cl)c1C [Example 84, N-[1-[5-Chloro-2-[4-[[dimethyl(oxo)-λ^6-sulfanylidene]amino]-3-fluoro-anilino]pyrimidin-4-yl]-4-methyl-indol-5-yl]prop-2-enamide]	330 nM	2300 nM	11 nM	150 nM	390 nM

Stronger by Kd [1], values ahead:

Kd [1]	Kd [2]	Kd [3]	Kd [4]	Kd [5]	Compound
290 nM	4600 nM	5 nM	140 nM	250 nM	CS(C)(=O)=Nc1ccc(Nc2ncc(Cl)c(-n3ccc4c(NC(=O)C5CC5)cccc43)n2)cc1 [Example 78, N-[1-[5-Chloro-2-[4-[[dimethyl(oxo)-λ^6-sulfanylidene]amino]anilino]-pyrimidin-4-yl]indol-4-yl]cyclopropanecarboxamide]
260 nM	2600 nM	7 nM	130 nM	170 nM	CCC(=O)Nc1cccc2c1ccn2-c1nc(Nc2ccc(N=S(C)(C)=O)cc2)ncc1Cl [Example 77, N-[1-[5-Chloro-2-[4-[[dimethyl(oxo)-λ^6-sulfanylidene]amino]anilino]-pyrimidin-4-yl]indol-4-yl]propanamide]
170 nM	3000 nM	26 nM	190 nM	330 nM	Cn1cc(-c2nc(Nc3ccc(S(=N)(=O)C4CC4)cc3)ncc2Cl)c2ccccc21 (stereo not shown) [Example 50, 5-Chloro-N-[4-(cyclopropyl-sulfonimidoyl)phenyl]-4-(1-methylindol-3-yl)pyrimidin-2-amine]
140 nM	1000 nM	7 nM	87 nM	140 nM	CS(C)(=O)=Nc1ccc(Nc2ncc(Cl)c(-n3ccc4c(N)cccc43)n2)cc1 [Example 79, 1-[5-Chloro-2-[4-[[dimethyl(oxo)-λ^6-sulfanylidene]amino]anilino]-pyrimidin-4-yl]indol-4-amine]
100 nM	240 nM	5.7 nM	17 nM	77 nM	C=CC(=O)Nc1ccc2c(ccn2-c2nc(Nc3ccc(N4CCS(=N)(=O)CC4)cc3)ncc2Cl)c1 [Example 72]
79 nM	1100 nM	3 nM	59 nM	86 nM	CCC(=O)Nc1cccc2c1ccn2-c1nc(Nc2ccc(N3CCS(=N)(=O)CC3)cc2)ncc1Cl [Example 83, N-[1-[5-Chloro-2-[4-(1-imino-1-oxo-1,4-thiazinan-4-yl)anilino]pyrimidin-4-yl]indol-4-yl]propanamide]
63 nM	240 nM	7.1 nM	46 nM	90 nM	C=CC(=O)Nc1ccc2c(cnn2-c2nc(Nc3ccc(N=S(C)(C)=O)cc3)ncc2Cl)c1 [Example 86, N-[1-[5-Chloro-2-[4-[[dimethyl(oxo)-λ^6-sulfanylidene]amino]anilino]-pyrimidin-4-yl]indazol-5-yl]prop-2-enamide]
62 nM	1900 nM	2 nM	23 nM	51 nM	C=CC(=O)Nc1cccc2c1ccn2-c1nc(Nc2ccc(N3CCS(=N)(=O)CC3)cc2)ncc1Cl [Example 81]
50 nM	130 nM	11 nM	22 nM	18 nM	CS(C)(=O)=Nc1ccc(Nc2ncc(F)c(-c3c[nH]c4ccccc34)n2)cc1 [Example 59, N-[4-[[Dimethyl(oxo)-λ^6-sulfanylidene]amino]phenyl]-5-fluoro-4-(1H-indol-3-yl)pyrimidin-2-amine]
50 nM	450 nM	2 nM	42 nM	59 nM	N=S1(=O)CCN(c2ccc(Nc3ncc(Cl)c(-n4ccc5c(N)cccc54)n3)cc2)CC1 [Example 82, 1-[5-Chloro-2-[4-(1-imino-1-oxo-1,4-thiazinan-4-yl)anilino]pyrimidin-4-yl]indol-4-amine]
19 nM	120 nM	7 nM	15 nM	11 nM	N=S1(=O)CCN(c2ccc(Nc3ncc(F)c(-c4c[nH]c5ccccc45)n3)cc2)CC1 [Example 58, 5-Fluoro-N-[4-(1-imino-1-oxo-1,4-thiazinan-4-yl)phenyl]-4-(1H-indol-3-yl)pyrimidin-2-amine]
16 nM	190 nM	4 nM	37 nM	18 nM	N=S(=O)(c1ccc(Nc2ncc(Cl)c(-c3c[nH]c4ccccc34)n2)cc1)C1CC1 (stereo not shown) [Example 47, 5-Chloro-N-[4-(cyclopropyl-sulfonimidoyl)phenyl]-4-(1H-indol-3-yl)pyrimidin-2-amine]
6 nM	160 nM	2 nM	16 nM	7 nM	Cc1cnc(Nc2ccc(S(C)(=N)=O)cc2)nc1-c1c[nH]c2ccccc12 (stereo not shown) [Example 48, 4-(1H-Indol-3-yl)-5-methyl-N-[4-(methylsulfonimidoyl)-phenyl]pyrimidin-2-amine]
